Results published in PubChem BioAssay AID248 (DTP/NCI, 2004).
“And” between values parts separate entries of the source, which are not always exact repeats. Equal values may be shown once. Inconclusive results and toxic doses are left out. Rule as the data show it: active = T/C of 150% or more; inactive = T/C below 125%.

Tested on: L1210 leukemia ip in BDF1 mice, survival T/C
Assay: NCI In Vivo Anticancer Drug Screen. Data for tumor model L1210 Leukemia (intraperitoneal) in B6D2F1 (BDF1) mice
Details: endpoint: mean survival time, higher = longer survival
In short: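 Survival endpoint. Drug-treated group vs vehicle group, expressed as T divided by C. Tumor passaged by transplantation.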

[1] = dose: 100.0 mg/kg/injection, schedule: Q01DX009 (ip), vehicle: Klucel (hydroxypropylcellulose) (HPC)
[2] = dose: 100.0 mg/kg/injection, schedule: Q04DX003 (ip), vehicle: Klucel (hydroxypropylcellulose) (HPC)
[3] = dose: 200.0 mg/kg/injection, schedule: Q01DX009 (ip), vehicle: Klucel (hydroxypropylcellulose) (HPC)
[4] = dose: 200.0 mg/kg/injection, schedule: Q04DX003 (ip), vehicle: Klucel (hydroxypropylcellulose) (HPC)
[5] = dose: 400.0 mg/kg/injection, schedule: Q01DX009 (ip), vehicle: Klucel (hydroxypropylcellulose) (HPC)
[6] = dose: 400.0 mg/kg/injection, schedule: Q04DX003 (ip), vehicle: Klucel (hydroxypropylcellulose) (HPC)
[7] = dose: 3.12 mg/kg/injection, schedule: Q01DX009 (ip), vehicle: saline
[8] = dose: 6.25 mg/kg/injection, schedule: Q01DX009 (ip), vehicle: saline
[9] = dose: 100.0 mg/kg/injection, schedule: Q01DX001 (ip), vehicle: saline
[10] = dose: 200.0 mg/kg/injection, schedule: Q01DX001 (ip), vehicle: saline
[11] = dose: 400.0 mg/kg/injection, schedule: Q01DX001 (ip), vehicle: saline
[12] = dose: 100.0 mg/kg/injection, schedule: Q04DX002 (ip), vehicle: Klucel (hydroxypropylcellulose) (HPC)
[13] = dose: 200.0 mg/kg/injection, schedule: Q04DX002 (ip), vehicle: Klucel (hydroxypropylcellulose) (HPC)
[14] = dose: 400.0 mg/kg/injection, schedule: Q04DX002 (ip), vehicle: Klucel (hydroxypropylcellulose) (HPC)
[15] = dose: 100.0 mg/kg/injection, schedule: Q04DX002 (ip), vehicle: gum acacia
[16] = dose: 200.0 mg/kg/injection, schedule: Q04DX002 (ip), vehicle: gum acacia

Measured: T/C

COc1ccc2c(O)c(Cl)c(=O)oc2c1
inactive: dose: 100.0 mg/kg/injection, schedule: Q04DX003 (ip), vehicle: saline 91 % of control | dose: 200.0 mg/kg/injection, schedule: Q04DX003 (ip), vehicle: saline 91 % of control | dose: 400.0 mg/kg/injection, schedule: Q04DX003 (ip), vehicle: saline 94 % of control

Cc1cc(Cl)c(Cl)cc1NC(=O)/C=C\c1ccccc1
inactive: [1] 114 % of control | [2] 91 % of control | [3] 108 % of control | [4] 94 % of control | [5] 102 % of control | [6] 97 % of control

Cc1cccc2cc3cccc[n+]3cc12
inactive: dose: 1.56 mg/kg/injection, schedule: Q04DX003 (ip), vehicle: saline 101 % of control | [7] 96 % of control | dose: 3.12 mg/kg/injection, schedule: Q04DX003 (ip), vehicle: saline 93 % of control | [8] 96 % of control | dose: 6.25 mg/kg/injection, schedule: Q04DX003 (ip), vehicle: saline 97 % of control | dose: 12.5 mg/kg/injection, schedule: Q04DX003 (ip), vehicle: saline 100 % of control

CCCCCCCCC(=O)NCc1ccc(O)c(OC)c1
inactive: dose: 1.56 mg/kg/injection, schedule: Q01DX009 (ip), vehicle: saline 93 % of control | [7] 101 % of control | [8] 90 % of control

O=C(C(Cl)(Cl)CO)C(Cl)(Cl)CO
inactive: [9] 91 % of control | [10] 94 % of control | [11] 92 % of control

Clc1nn2cnnc2c2ccccc12
inactive: dose: 20.0 mg/kg/injection, schedule: Q04DX003 (ip), vehicle: saline 110 % of control

CCC(=O)c1ccc(-c2ccccc2)cc1
inactive: dose: 175.0 mg/kg/injection, schedule: Q04DX002 (ip), vehicle: Klucel (hydroxypropylcellulose) (HPC) 102 % of control | dose: 350.0 mg/kg/injection, schedule: Q04DX002 (ip), vehicle: Klucel (hydroxypropylcellulose) (HPC) 98 % of control

O=C(CCCl)c1ccccc1
inactive: [12] 97 % of control | [13] 94 % of control

CCOC(=O)C1(C(=O)OCC)CC(C)C(=O)N1c1ccccc1OC (stereo not given)
inactive: [12] 100 % of control | [13] 89 % of control | [14] 100 % of control

CN(C)N=Nc1ccc(S(C)(=O)=O)cc1
inactive: dose: 25.0 mg/kg/injection, schedule: Q04DX002 (ip), vehicle: saline with Tween-80 105 % of control | dose: 50.0 mg/kg/injection, schedule: Q04DX002 (ip), vehicle: saline with Tween-80 102 % of control | dose: 100.0 mg/kg/injection, schedule: Q04DX002 (ip), vehicle: saline with Tween-80 102 % of control and 106 % of control | dose: 200.0 mg/kg/injection, schedule: Q04DX002 (ip), vehicle: saline with Tween-80 116 % of control | dose: 400.0 mg/kg/injection, schedule: Q04DX002 (ip), vehicle: saline with Tween-80 97 % of control

O=c1[nH]c(=O)[nH]c(=S)[nH]1
inactive: dose: 100.0 mg/kg/injection, schedule: Q01DX Z (ip), vehicle: methylcellulose (MC) 98 % of control | dose: 200.0 mg/kg/injection, schedule: Q01DX Z (ip), vehicle: methylcellulose (MC) 87 % of control

Oc1ccccc1C=Nc1ccccc1O
inactive: dose: 33.0 mg/kg/injection, schedule: Q04DX002 (ip), vehicle: gum acacia 103 % of control | dose: 50.0 mg/kg/injection, schedule: Q04DX002 (ip), vehicle: gum acacia 100 % of control | dose: 75.0 mg/kg/injection, schedule: Q04DX002 (ip), vehicle: gum acacia 100 % of control | dose: 100.0 mg/kg/injection, schedule: Q01DX009 (ip), vehicle: gum acacia 89 % of control | [15] 104 % of control | dose: 200.0 mg/kg/injection, schedule: Q01DX009 (ip), vehicle: gum acacia 105 % of control | [16] 107 % of control | dose: 400.0 mg/kg/injection, schedule: Q01DX009 (ip), vehicle: gum acacia 89 % of control

COC(=O)c1c2c(nc3ccccc13)-c1ccccc1C(C)(C)C2OC (stereo not given)
inactive: [2] 113 % of control | [4] 102 % of control | [6] 101 % of control

O=S(=O)(c1cc(Br)ccc1O)c1cc(Br)ccc1O
inactive: [9] 97 % of control | [15] 93 % of control | [10] 95 % of control | [16] 93 % of control | [11] 103 % of control | dose: 400.0 mg/kg/injection, schedule: Q04DX002 (ip), vehicle: gum acacia 93 % of control

COC(=O)c1cc(C)c(C(=O)OC)cc1C
inactive: dose: 100.0 mg/kg/injection, schedule: Q01DX009 (ip), vehicle: saline sonified 97 % of control | dose: 200.0 mg/kg/injection, schedule: Q01DX009 (ip), vehicle: saline sonified 91 % of control | dose: 400.0 mg/kg/injection, schedule: Q01DX009 (ip), vehicle: saline sonified 88 % of control

NC(=O)Nc1ccccc1
inactive: [1] 103 % of control | [12] 109 % of control | [3] 106 % of control | [13] 109 % of control | [5] 103 % of control | [14] 88 % of control

Nc1ccc(CCCCc2ccc(Cl)cc2Cl)cc1
inactive: dose: 50.0 mg/kg/injection, schedule: Q01DX001 (ip), vehicle: Klucel (hydroxypropylcellulose) (HPC) 100 % of control | dose: 50.0 mg/kg/injection, schedule: Q01DX009 (ip), vehicle: saline with Tween-80 96 % of control | dose: 100.0 mg/kg/injection, schedule: Q01DX001 (ip), vehicle: Klucel (hydroxypropylcellulose) (HPC) 94 % of control | dose: 100.0 mg/kg/injection, schedule: Q01DX009 (ip), vehicle: saline with Tween-80 102 % of control | dose: 200.0 mg/kg/injection, schedule: Q01DX001 (ip), vehicle: Klucel (hydroxypropylcellulose) (HPC) 109 % of control

C=C(C)Cc1cnc(SCc2ccccc2)[nH]c1=O
inactive: [1] 93 % of control | [2] 97 % of control | [3] 91 % of control | [4] 103 % of control | [5] 94 % of control | [6] 104 % of control

O=C(c1cccnc1)C1Cc2ccccc2C1=O (stereo not given)
inactive: dose: 100.0 mg/kg/injection, schedule: Q04DX003 (ip), vehicle: saline sonified 100 % of control | dose: 200.0 mg/kg/injection, schedule: Q04DX003 (ip), vehicle: saline sonified 96 % of control | dose: 400.0 mg/kg/injection, schedule: Q04DX003 (ip), vehicle: saline sonified 91 % of control

CN1CCN(CCSC(=O)C(O)(c2ccccc2)C2CCCC2)CC1 (stereo not given)
inactive: dose: 150.0 mg/kg/injection, schedule: Q01DX001 (ip), vehicle: saline 102 % of control

[O-][n+]1ccccc1Br
inactive: dose: 50.0 mg/kg/injection, schedule: Q01DX009 (ip), vehicle: water 104 % of control | dose: 100.0 mg/kg/injection, schedule: Q01DX009 (ip), vehicle: water 98 % of control | dose: 100.0 mg/kg/injection, schedule: Q04DX003 (ip), vehicle: water 95 % of control | dose: 150.0 mg/kg/injection, schedule: Q01DX009 (ip), vehicle: water 95 % of control | dose: 200.0 mg/kg/injection, schedule: Q04DX003 (ip), vehicle: water 115 % of control

COc1ccn(C2CCCO2)c(=O)n1 (stereo not given)
inactive: dose: 50.0 mg/kg/injection, schedule: Q01DX001 (ip), vehicle: saline 101 % of control | [9] 101 % of control | [10] 104 % of control | [11] 104 % of control

Nc1ccc2c(c1)C(=O)c1c(F)cccc1-2
inactive: dose: 100.0 mg/kg/injection, schedule: Q04DX003 (ip), vehicle: acetone 98 % of control | dose: 200.0 mg/kg/injection, schedule: Q04DX003 (ip), vehicle: acetone 94 % of control | dose: 400.0 mg/kg/injection, schedule: Q04DX003 (ip), vehicle: acetone 91 % of control

O=S(=O)(CCCl)c1ccccc1
inactive: [2] 103 % of control | dose: 100.0 mg/kg/injection, schedule: Q04DX003 (ip), vehicle: saline with Tween-80 92 % of control | [4] 97 % of control | dose: 200.0 mg/kg/injection, schedule: Q04DX003 (ip), vehicle: saline with Tween-80 92 % of control | [6] 94 % of control | dose: 400.0 mg/kg/injection, schedule: Q04DX003 (ip), vehicle: saline with Tween-80 97 % of control
